We go through one compound from patent publication US20250281561A1, “APPLICATION OF LYCIUM BARBARUM LEAF EXTRACT IN PREPARING DRUG FOR TREATING DIABETIC RETINOPATHY” (NANJING UNIVERSITY OF CHINESE MEDICINE, priority 2025, published 2025).

In assay [1] the test system is DR zebrafish. Nature of the assay: Retinal vascular diameter in DR zebrafish (fli1: EGFP, fluorescence microscope, ImageJ). Conditions: crude drug dosage high 40 μg/mL, low 20 μg/mL, three days, compared with model group. The format is in vivo. The method, then:
(§1) 3dpf zebrafish embryos were cultured in a 6-well plate, with 30 zebrafish embryos in each well. A model group and an administration group were cultured in 100 mg/mL circulating water, and divided into a Con group, a Mod group, a metformin (MET) group, a ST-H group, a ST-L group, a CT-H group, a CT-L group, a FT-H group, a FT-L group, a DT-H group, a DT-L group, a SWJ-H group, and a SWJ-L group. An administration dosage for the MET group was 200 μg/ml, and a crude drug dosage was converted for other administration groups, wherein a high dose was 40 μg/mL, and a low dose was 20 μg/mL. The zebrafish embryos were cultured for three days, and the water was replaced at a fixed time every day.
3dpf fli1: EGFP zebrafish embryos were cultured by the method as described in 2.4, and 0.003% phenylthiourea (PTU) was added into circulating water to inhibit melanogenesis of the zebrafish embryos. After the culture was completed, the zebrafish embryos were collected, and fixed on a glass slide. The retinal vessels in the zebrafish were photographed by a fluorescence microscope, and a retinal vascular diameter was measured by ImageJ.

Assay [2] has as its system ARPE-19 cells with high glucose-induced damage. Nature of the assay: Kit detection of oxidative stress level (GSH, SOD, MDA) in ARPE-19 cells with high glucose-induced damage. The format is cell-based. Conditions: summary statement. As for the experimental part:
(§2) Preparation method of active ingredient solution of Lycium barbarum leaf: 1 mg of freeze-dried powder of different active ingredients of Lycium barbarum leaf (Lycium barbarum leaf water extract, Lycium barbarum leaf ethanol extract, refined Lycium barbarum leaf extract, Lycium barbarum polysaccharide, and betaine) prepared in Embodiment 1 was weighed respectively, and dissolved in 1 mL of DMEM/F12 culture medium to prepare 1 mg/mL solution, and the solution was diluted to a required concentration with DMEM/F12 culture medium during administration, and filtered with a […] filter for sterilization.
(§3) The ARPE-19 cells were cultured in DMEM/F12 culture medium containing 10% FBS and 1% penicillin/streptomycin at 37° C. under 5% CO2. A model group was treated with 300 mM glucose, and the culture medium was added with a corresponding drug to culture the cells for 48 hours to complete the modeling.
The cells were inoculated into a 6-well plate during cell culture, and divided into a Con group, a Mod group, a ST-H group, a ST-L group, a CT-H group, a CT-L group, a FT-H group, a FT-L group, a DT-H group, a DT-L group, a SWJ-H group, and a SWJ-L group, wherein the high dose was 10 μg/mL and the low dose was 1 μg/mL. […] A GSH level, and SOD and MDA activities in the cells were detected according to a kit instruction.

Assay [3] relates to p38, ERK and JNK genes in a MAPK pathway. Nature of the assay: qPCR gene expression level (p38, ERK, JNK) in ARPE-19 cells with high glucose-induced damage. In kind it is cell-based. Conditions: 10 μg/mL, compared with model group. The method, then: as §3
The cells were inoculated into a 6-well plate during cell culture, and divided into a Con group, a Mod group, a ST group, a CT group, a FT group, a DT group, and a SWJ group, wherein the administration dosage was 10 μg/mL. The cells were collected into Ep tubes and centrifuged at 1000 rpm for 5 minutes, and a supernatant was discarded. Each tube was added with 1 ml of Trizol reagent and blown violently for 15 seconds to mix fully and evenly, and the mixture was allowed to stand at room temperature for 2-3 minutes, and rotated at 4° C. for 1-2 hours. […] A concentration was determined by an ultra-micro ultraviolet spectrophotometer, and then the mixture was stored in a refrigerator at −80° C. for later use. […]
The reaction system was mixed fully and evenly, added to a 96-well PCR plate, centrifuged, and determined by a PCR machine. […] A CT value of a sample was determined, and then relative expressions of p38, JNK and ERK in the sample were calculated by a 2-ΔΔCT method.
Background: In qPCR the cycle at which signal appears reflects the starting amount.

The test system of assay [4] is DR zebrafish. The assay is described as follows: Kit detection of glucose content and oxidative stress level (GSH, SOD, MDA) in DR zebrafish. The format is in vivo. As for the experimental part:
as §1
Wild A/B-type zebrafish embryos were cultured according to the above method, and then the zebrafish embryos were collected into Ep tubes and then homogenized, and centrifuged at 4000 rpm for 10 minutes. A supernatant was taken, and GLU and GSH levels and SOD and MDA activities in cells were detected according to a kit instruction.

The subject of assay [5] is p38, ERK and JNK genes in a MAPK pathway. Nature of the assay: qPCR gene expression level (p38, ERK, JNK) in DR zebrafish. In kind it is in vivo. The note with it: crude drug dosage high 40 μg/mL, low 20 μg/mL, three days, compared with model group. The method, then: as §1
The cultured zebrafish embryos were collected into Ep tubes, and each tube was added with 1 mL of TRIZOL and then homogenized, and centrifuged at 4° C. and 12000× g for 10 minutes. A supernatant was taken, and other operations were as described in 2.3.

Assay [6] concerns ARPE-19 cells with high glucose-induced damage. Nature of the assay: CCK8 survival rate of ARPE-19 cells with high glucose-induced damage. The format is cell-based. Conditions: 300 mM glucose, 48 hours; high dose 10 μg/mL, low dose 1 μg/mL; compared with model group. The method, then:
as §2, with “sterilization. […]” for “sterilization.”
The cells were inoculated into a 96-well plate during culture, and divided into a control group (Con group), a model group (Mod group), a high-dose Lycium barbarum leaf water extract group (ST-H group), a low-dose Lycium barbarum leaf water extract group (ST-L group), a high-dose Lycium barbarum leaf ethanol extract group (CT-H group), a low-dose Lycium barbarum leaf ethanol extract group (CT-L group), […], a low-dose Lycium barbarum polysaccharide group (DT-L group), a high-dose betaine group (SWJ-H group), and a low-dose betaine group (SWJ-L group), wherein the high dose was 10 μg/mL and the low dose was 1 μg/mL. […] An absorbance was measured at 450 nm, and a cell survival rate was calculated.

Assay [7] has the same test system. The assay is described as follows: ROS content (H2FCDA fluorescence) in ARPE-19 cells with high glucose-induced damage. In kind it is cell-based. Conditions: high dose 10 g/mL, low dose 1 μg/mL, compared with model group. The method, then: as §3
The cells were inoculated into a 96-well plate during culture, and divided into a Con group, a Mod group, a ST-H group, a ST-L group, a CT-H group, a CT-L group, a FT-H group, a FT-L group, a DT-H group, a DT-L group, a SWJ-H group, and a SWJ-L group, wherein the high dose was […] and the low dose was 1 μg/mL. After the culture was completed, the culture medium was discarded, and a culture medium containing 1/1000 H2FCDA was added to incubate the cells at 37° C. for 30 minutes. A photo was taken by a fluorescence microscope at an excitation wavelength of 488 nm, and a fluorescence intensity was analyzed by ImageJ.

The structures appear in SMILES notation.

For the compound `C[N+](C)(C)CC(=O)O` [betaine], the retinal vascular diameter result in the assay on DR zebrafish [1] was “significantly reduce a retinal vascular diameter”. For the same compound, the oxidative stress entry is “improve oxidative stress” in assay [2] and “improve oxidative stress” in the assay with DR zebrafish [4] (DR zebrafish model, summary statement). Moreover, the “relative mRNA expressions of p38, ERK and JNK” value in assay [3] and in assay [5] was “down-regulate expression levels” each time. Moreover, in the assay on DR zebrafish [4] (DR zebrafish, crude drug dosage high 40 μg/mL, low 20 μg/mL, three days, compared with model group), the glucose content result was “reduce a glucose content in vivo”. Besides, in assay [6], the “survival rate of ARPE-19 cells” value is on record as “improve a survival rate”. Besides, in assay [7], the “ROS content (ROS fluorescence intensity)” value is recorded as “significantly reduce the generation of ROS”.
